Assay [1] deals with L. mexicana promastigotes WT. The assay can be described thus: Alamar blue drug sensitivity assay, L. mexicana WT. Format: cell-based, Leishmania mexicana. Particulars: Leishmania mexicana, 72 h, WT promastigotes, 72 h + 48 h with dye, n ≥ 4. The protocol:
(§1) Sensitivity assays of Leishmania strains to various drugs using the viability dye resazurin (Alamar Blue) (Sigma-Aldrich) were performed using a protocol adapted from [Räz et al. (1997)], as described ([Al-Salabi et al., 2003], [Gould et al., 2008]). Pentamidine and diminazene were used as non-nucleoside controls and were obtained from Sigma-Aldrich, as were many purines, pyrimidines, and analogs, with the exceptions of 2-thiouridine and 4-thiouridine (TriLink BioTechnologies, San Diego, CA); 5′-deoxyuridine, and 2′-3′-dideoxyuridine (Carbosynth, Compton, UK); 5-fluoro-2′-deoxyuridine (Fluka); and 2-thiouracil (ICN Biomedicals, Cambridge, UK). A preliminary promastigote culture was diluted to a density of 2 × 10^6 cells/ml, of which 100 μl was added to wells of 96-well plates pre-loaded with 100 μl of doubling dilutions of test compounds, resulting in a final density of 1 × 10^6 cells/ml; the dilutions were over 2 rows of the plate (23 concentrations), with the last well containing only medium and serving as the no-drug control. The plates were incubated at 25 °C for 72 h before adding the Alamar Blue dye (20 μl of 12.5 mg resazurin sodium salt (Sigma) in 100 ml phosphate buffered saline (PBS; pH 7.4)). Since Leishmania parasites metabolize the Alamar Blue dye slower than trypanosomes ([Gould et al., 2008]), the cells were incubated with the dye for a further period of 48 h before measuring the fluorescence, using a FLUOstar Optima fluorimeter (BMG Labtech) at wavelengths of 544 nm for excitation and 620 nm for emission. […] Each experiment was performed independently at least 4 times; statistical significance was determined using Student's unpaired t-test.
In general terms: Resazurin is reduced to fluorescent resorufin, in cell work by metabolically active cells.

The subject of assay [2] is Lmex5FURes. Nature of the assay: microbe, parasite or virus in culture. Format: cell-based, Leishmania mexicana. The protocol: as §1
Assay [3] relates to L. major promastigotes WT. The assay can be described thus: Alamar blue drug sensitivity assay, L. major WT. The class given is cell-based, Leishmania major. The note with it: Leishmania major, WT promastigotes, 72 h + 48 h with dye, n ≥ 4. As for the experimental part:
as §1

Assay [4] concerns the target LmajNT1. The assay can be described thus: [3H]-thymidine uptake by L. major promastigotes. The class given is cell-based, Leishmania major. As for the experimental part: (§2) Using the standard uptake technique as described for T. brucei and Leishmania species ([Wallace et al., 2002], [Al-Salabi and De Koning, 2005], [Gudin et al., 2006]), the dose- or time-dependent uptake of radiolabeled permeants was investigated.
(§3) Briefly, cells in the mid-to-late logarithmic stage of growth were harvested by centrifugation for 10 min at 1500×g. The cells were washed twice with transport assay buffer (AB: 33 mM HEPES, 98 mM NaCl, 4.6 mM KCl, 0.55 mM CaCl2, 0.07 mM MgSO4, 5.8 mM NaH2PO4, 0.3 mM MgCl2, 23 mM NaHCO3, 14 mM glucose, pH 7.3), resuspended at a density of 10^8 cells ml^−1 in AB, and left for 20–30 min at room temperature to recover from centrifugation stress. One hundred microliters of cell suspension was incubated at ambient temperature for a predetermined time with 100 μl radiolabeled test compound, in the presence or absence of unlabeled substrate or other competitive inhibitors. The incubation was terminated by the addition of ice-cold stop solution (AB containing saturating levels, usually 10 mM, of unlabeled permeant) and centrifugation through oil for 1 min at 13,000 × g. […] Radioactivity was determined by liquid scintillation counting in a Beckman LS6000 TA scintillation counter. Saturation data, inhibition data, and time courses were plotted to equations for linear or non-linear regression (hyperbolic or sigmoid curves), as appropriate. All experiments were performed in triplicate and on at least three independent occasions.
Subsequent experiments were performed with a 5 min incubation time.

Assay [5] addresses LmexUU1. The class given is cell-based, Leishmania mexicana. Particulars: inhibition of [3H]-uracil uptake, 4 min. The protocol: as §2, §3
The mark [6] stands for this setting: inhibition of 0.25 μM [3H]-thymidine uptake (total LmajNT1.1 + LmajNT1.2), 5 min.

Structures are written as SMILES. Where two headings read alike, the source gives them in different places.

For orientation: EC50 means the midpoint of the concentration-response curve. In the case of `N=C(N)c1ccc(OCCCCCOc2ccc(C(=N)N)cc2)cc1` [pentamidine], the EC50 is 0.0046 ± 0.0002 mM in assay [1] (read-out: EC50), 0.005 ± 0.0006 mM in assay [2] (Leishmania mexicana) and 0.0033 ± 0.0002 mM in assay [3] (read-out: EC50). In addition, in assay [2] (Lmex5FURes vs L. mexicana WT), the “RF (Resistance Factor = IC50 (resistant clone)/IC50 (WT))” value turned out to be 1.1.
For orientation: Ki means a measure of affinity in units of concentration, obtained from inhibition or displacement. As to `C[C@H]1O[C@@H](n2cc(F)c(=O)[nH]c2=O)[C@H](O)[C@@H]1O` [5-fluoro,5′-deoxyuridine], the Ki in assay [4] (setting [6]) was 0.168 ± 0.032 mM.
With `Nc1nc(=O)[nH]cc1F` [5-fluorocytosine], the EC50 in assay [1] and in assay [3] (72 h) was more than 5 mM in each case.
Take `Cc1cn([C@H]2CC[C@@H](CO)O2)c(=O)[nH]c1=O` [3′-deoxythymidine]: in assay [4] (setting [6]), the Ki came out at 1.25 ± 0.0445 mM.
Regarding `O=c1[nH]c(=O)n([C@H]2C[C@H](O)[C@@H](CO)O2)cc1I` [5-iodo-2′-deoxyuridine], the EC50 in assay [1] and in assay [3] (72 h) was more than 5 mM each time.
Regarding `O=c1[nH]c(=O)n([C@@H]2O[C@H](CO)[C@@H](O)[C@H]2O)cc1I` [5-iodouridine], the EC50 in assay [1] and in assay [3] (72 h) was more than 5 mM throughout.
On to `O=c1[nH]c(=O)n([C@H]2C[C@H](O)[C@@H](CO)O2)cc1Cl` [5-chloro-2′-deoxyuridine], for which the EC50 in assay [1] and in assay [3] (72 h) was more than 5 mM in each case.
Molecule `O=c1ccn([C@@H]2O[C@H](CO)[C@@H](O)[C@H]2O)c(=S)[nH]1` [2-thiouridine] returned a Ki in assay [4] of 0.765 ± 0.068 mM. Further, the EC50 in assay [1] and in assay [3] (72 h) was more than 5 mM each time.
Consider `O=c1[nH]cc(Br)c(=O)[nH]1` [5-bromouracil], for which the concentration giving a half-maximal response (EC50) in assay [1] and in assay [3] (72 h) was more than 5 mM each time.
`O=c1ccn([C@@H]2O[C@H](CF)[C@@H](O)[C@H]2O)c(=O)[nH]1` [5′-deoxy-5′-fluorouridine]: the EC50 in assay [1] and in assay [3] (72 h) was more than 5 mM each time.
With `O=c1cn[nH]c(=O)[nH]1` [6-azauracil], the EC50 in assay [1] and in assay [3] (72 h) was more than 5 mM each time.
As to `O=C1C=CN([C@@H]2O[C@H](CO)[C@@H](O)[C@H]2O)C(=O)C1` [3-deazauridine], the Ki in assay [4] (setting [6]) came out at 3.67 ± 0.42 mM.
As for `C[C@H]1O[C@@H](n2ccc(=O)[nH]c2=O)[C@H](O)[C@@H]1O` [5′dUrd, 5′-deoxyuridine], the EC50 amounted to 0.461 ± 0.08 mM in assay [1] (read-out: EC50) and 0.525 ± 0.046 mM in assay [3] (read-out: EC50).
For `O=c1ccn([C@@H]2O[C@H](CO)C[C@H]2O)c(=O)[nH]1` [3′-deoxyuridine], the EC50 in assay [1] and in assay [3] (72 h) was more than 5 mM throughout.
Turning to `Nc1nc(=O)n([C@@H]2O[C@H](CO)[C@@H](O)[C@H]2O)cc1F` [5-fluorocytidine], the EC50 in assay [1] and in assay [3] (72 h) was more than 5 mM throughout.
Turning to `O=c1[nH]c(=O)n([C@@H]2O[C@H](CO)[C@@H](O)[C@H]2O)cc1Cl` [5-chlorouridine], the EC50 in assay [1] and in assay [3] (72 h) was more than 5 mM each time.
With `O=c1[nH]c(=O)n([C@@H]2O[C@H](CO)[C@@H](O)[C@H]2O)cc1Br` [5-bromouridine], the EC50 in assay [1] and in assay [3] (72 h) was more than 5 mM each time.
Take `O=c1ccn([C@H]2CC[C@@H](CO)O2)c(=O)[nH]1` [2′,3′-dideoxyuridine]: the Ki in assay [4] was more than 2.5 mM. Further, the EC50 in assay [1] and in assay [3] (72 h) was more than 5 mM throughout.
`Nc1cc[nH]c(=O)n1` [cytosine] registered a Ki in assay [5] of more than 5 mM.
For `O=c1[nH]c(=O)n([C@H]2C[C@H](O)[C@@H](CO)O2)cc1Br` [5-bromo-2′-deoxyuridine], the EC50 in assay [1] and in assay [3] (72 h) was more than 5 mM in each case.
On to `O=c1[nH]c(=S)ccn1[C@@H]1O[C@H](CO)[C@@H](O)[C@H]1O` [4-thiouridine], for which the Ki in assay [4] (setting [6]) is 0.069 ± 0.0181 mM. Moreover, the EC50 in assay [1] and in assay [3] (72 h) was more than 5 mM in each case.
`Cc1c[nH]c(=O)[nH]c1=O` [thymine]: the Ki is 0.56 ± 0.19 mM in assay [5] and more than 1 mM in assay [4] (setting [6]).

The record behind these values is paper PMC5407577, “Functional and genetic evidence that nucleoside transport is highly conserved in Leishmania species: Implications for pyrimidine-based chemotherapy” (International Journal for Parasitology: Drugs and Drug …, 2017).
